Laboratory results taken from patent US20250098679A1, “HERBICIDAL PYRIDONE DERIVATIVES” (SYNGENTA CROP PROTECTION AG, priority 2021, published 2025).

What was measured:
Type in all cases: in vivo
Conditions in all cases: evaluated after 13 days
Setaria faberi (SETFA) [1] = assay: Pre-emergence Test, Setaria faberi (SETFA)
Zea mays (ZEAMX) [2] = assay: Post-emergence Test, Zea mays (ZEAMX); parameters: key to percentage damage caused to the plant, ZEAMX (five-point scale): 5=81-100%, 4=61-80%, 3=41-60%, 2=21-40%, 1=0-20% damage
Summary of the method: (§1)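 Spray application at 1000 g/ha unless otherwise stated. Damage was scored 13 days later as 1 (0-20%) to 5 (81-100%).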

[3] = system: Echinochloa crus-galli (ECHCG); assay: Pre-emergence Test, Echinochloa crus-galli (ECHCG)
[4] = system: Amaranthus palmeri (AMAPA); assay: Post-emergence Test, Amaranthus palmeri (AMAPA); parameters: key: 5=81-100%, 4=61-80%, 3=41-60%, 2=21-40%, 1=0-20% damage
Summary of the method: as §1

Zea mays (ZEAMX) [5] = assay: Pre-emergence Test, Zea mays (ZEAMX)
[6] = system: Amaranthus retoflexus (AMARE); assay: Post-emergence Test, Amaranthus retoflexus (AMARE); parameters: key to percentage damage caused to the plant, AMARE (five-point scale): 5=81-100%, 4=61-80%, 3=41-60%, 2=21-40%, 1=0-20% damage
Summary of the method: as §1

[7] = system: Amaranthus retoflexus (AMARE); assay: Pre-emergence Test, Amaranthus retoflexus (AMARE)
Setaria faberi (SETFA) [8] = assay: Post-emergence Test, Setaria faberi (SETFA); parameters: key to percentage damage caused to the plant, SETFA (five-point scale): 5=81-100%, 4=61-80%, 3=41-60%, 2=21-40%, 1=0-20% damage
Summary of the method: as §1

[9] = system: Amaranthus palmeri (AMAPA); assay: Pre-emergence Test, Amaranthus palmeri (AMAPA)
[10] = system: Ipomoea hederacea (IPOHE); assay: Post-emergence Test, Ipomoea hederacea (IPOHE); parameters: key to percentage damage caused to the plant, IPOHE (five-point scale): 5=81-100%, 4=61-80%, 3=41-60%, 2=21-40%, 1=0-20% damage
Summary of the method: as §1

[11] = system: Echinochloa crus-galli (ECHCG); assay: Post-emergence Test, Echinochloa crus-galli (ECHCG); parameters: key to percentage damage caused to the plant, ECHCG (five-point scale): 5=81-100%, 4=61-80%, 3=41-60%, 2=21-40%, 1=0-20% damage
Summary of the method: as §1

[12] = system: Ipomoea hederacea (IPOHE); assay: Pre-emergence Test, Ipomoea hederacea (IPOHE)

| Structure (SMILES) | Pre-emergence Test SETFA, percentage damage caused to the plant (five-point scale) (Setaria faberi (SETFA) [1]; 250 g/Ha (*)) | Pre-emergence Test SETFA, percentage damage caused to the plant (five-point scale) (Setaria faberi (SETFA) [1]; 1000 g/ha) | percentage damage caused to the plant, ZEAMX (five-point scale) (Zea mays (ZEAMX) [2]; 250 g/Ha) | percentage damage caused to the plant, ZEAMX (five-point scale) (Zea mays (ZEAMX) [2]; 1000 g/ha) | Pre-emergence Test ECHCG, percentage damage caused to the plant (five-point scale) ([3]; 250 g/Ha (*)) | Pre-emergence Test ECHCG, percentage damage caused to the plant (five-point scale) ([3]; 1000 g/ha) | percentage damage caused to the plant, AMAPA (five-point scale) ([4]; 250 g/Ha) | percentage damage caused to the plant, AMAPA (five-point scale) ([4]; 1000 g/ha) | Pre-emergence Test ZEAMX, percentage damage caused to the plant (five-point scale) (Zea mays (ZEAMX) [5]; 1000 g/ha) | percentage damage caused to the plant, AMARE (five-point scale) ([6]; 250 g/Ha) | percentage damage caused to the plant, AMARE (five-point scale) ([6]; 1000 g/ha) | Pre-emergence Test AMARE, percentage damage caused to the plant (five-point scale) ([7]; 1000 g/ha) | percentage damage caused to the plant, SETFA (five-point scale) (Setaria faberi (SETFA) [8]; 250 g/Ha) | percentage damage caused to the plant, SETFA (five-point scale) (Setaria faberi (SETFA) [8]; 1000 g/ha) | Pre-emergence Test AMAPA, percentage damage caused to the plant (five-point scale) ([9]; 1000 g/ha) | percentage damage caused to the plant, IPOHE (five-point scale) ([10]; 250 g/Ha) | percentage damage caused to the plant, IPOHE (five-point scale) ([10]; 1000 g/ha) | percentage damage caused to the plant, ECHCG (five-point scale) ([11]; 250 g/Ha) | percentage damage caused to the plant, ECHCG (five-point scale) ([11]; 1000 g/ha) | Pre-emergence Test IPOHE, percentage damage caused to the plant (five-point scale) ([12]; 1000 g/ha) | further results |
| --- | --- | --- | --- | --- | --- | --- | --- | --- | --- | --- | --- | --- | --- | --- | --- | --- | --- | --- | --- | --- | --- |
| CCn1c(Cn2nc(C)cc2OC)cc(=O)c(C(=O)O)c1-c1ccc(Cl)c(Cl)c1 [Compound 127, 2-(3,4-dichlorophenyl)-1-ethyl-6-[(5-methoxy-3-methyl-pyrazol-1-yl)methyl]-4-oxo-pyridine-3-carboxylic acid] | 3 (3=41-60%) | 5 (5=81-100%) | 1 (1=0-20%) | 3 (3=41-60%) | 1 (1=0-20%) | 3 (3=41-60%) | 0 | 3 (3=41-60%) | 4 (4=61-80%) | 0 | 2 (2=21-40%) | 2 (2=21-40%) | 3 (3=41-60%) | 3 (3=41-60%) | 1 (1=0-20%) | 1 (1=0-20%) | 3 (3=41-60%) | 2 (2=21-40%) | 4 (4=61-80%) | 2 (2=21-40%) | Pre-emergence Test ZEAMX, percentage damage caused to the plant (five-point scale) (Zea mays (ZEAMX) [5]; 250 g/Ha (*)): 0; Pre-emergence Test AMARE, percentage damage caused to the plant (five-point scale) ([7]; 250 g/Ha (*)): 1 (1=0-20%); Pre-emergence Test AMAPA, percentage damage caused to the plant (five-point scale) ([9]; 250 g/Ha (*)): 1 (1=0-20%); Pre-emergence Test IPOHE, percentage damage caused to the plant (five-point scale) ([12]; 250 g/Ha (*)): 0 |
| CCn1c(Cn2ncc3cc(F)ccc32)cc(=O)c(C(=O)O)c1-c1ccc(Cl)c(Cl)c1 [Compound 102, 2-(3,4-dichlorophenyl)-1-ethyl-6-[(5-fluoroindazol-1-yl)methyl]-4-oxo-pyridine-3-carboxylic acid] | – | 1 (1=0-20%) | 1 (1=0-20%) | 0 | – | 1 (1=0-20%) | 2 (2=21-40%) | 4 (4=61-80%) | 0 | 1 (1=0-20%) | 4 (4=61-80%) | 1 (1=0-20%) | 1 (1=0-20%) | 2 (2=21-40%) | 1 (1=0-20%) | 1 (1=0-20%) | 3 (3=41-60%) | 3 (3=41-60%) | 3 (3=41-60%) | 3 (3=41-60%) | – |
| CCn1c(Cn2cc(C(C)=O)c(C)n2)cc(=O)c(C(=O)O)c1-c1ccc(Cl)c(Cl)c1 [Compound 100, 6-[(4-acetyl-3-methyl-pyrazol-1-yl)methyl]-2-(3,4-dichlorophenyl)-1-ethyl-4-oxo-pyridine-3-carboxylic acid] | – | 1 (1=0-20%) | 0 | 1 (1=0-20%) | – | 0 | 0 | 2 (2=21-40%) | 0 | 0 | 2 (2=21-40%) | 2 (2=21-40%) | 0 | 2 (2=21-40%) | 2 (2=21-40%) | 0 | 3 (3=41-60%) | 3 (3=41-60%) | 2 (2=21-40%) | 2 (2=21-40%) | – |
| CCn1c(Cn2nc(C(F)(F)F)cc2OC(F)F)cc(=O)c(C(=O)O)c1-c1ccc(Cl)c(Cl)c1 [Compound 151, 2-(3,4-dichlorophenyl)-6-[[5-(difluoromethoxy)-3-(trifluoromethyl)pyrazol-1-yl]methyl]-1-ethyl-4-oxo-pyridine-3-carboxylic acid] | 5 (5=81-100%) | 5 (5=81-100%) | 1 (1=0-20%) | 3 (3=41-60%) | 5 (5=81-100%) | 5 (5=81-100%) | 1 (1=0-20%) | 2 (2=21-40%) | 2 (2=21-40%) | 1 (1=0-20%) | 3 (3=41-60%) | 0 | 4 (4=61-80%) | 4 (4=61-80%) | 1 (1=0-20%) | 4 (4=61-80%) | 4 (4=61-80%) | 3 (3=41-60%) | 4 (4=61-80%) | 4 (4=61-80%) | Pre-emergence Test ZEAMX, percentage damage caused to the plant (five-point scale) (Zea mays (ZEAMX) [5]; 250 g/Ha (*)): 2 (2=21-40%); Pre-emergence Test AMARE, percentage damage caused to the plant (five-point scale) ([7]; 250 g/Ha (*)): 0; Pre-emergence Test AMAPA, percentage damage caused to the plant (five-point scale) ([9]; 250 g/Ha (*)): 0; Pre-emergence Test IPOHE, percentage damage caused to the plant (five-point scale) ([12]; 250 g/Ha (*)): 2 (2=21-40%) |
